Patent publication US20240228446A1, “PREPARATION METHOD FOR BICYCLIC COMPOUND AND APPLICATION AS ANTIFUNGAL AGENT” (priority 2021, published 2024)
≈ marks a conversion by molar mass, not a printed value. Like-named read-outs stand apart in the source and are kept apart here.

Columns and labels:
[1] = tested on: Candida albicans ATCC MYA-2876; assay: Minimal inhibitory concentration (MIC) test on fungal growth (CLSI M27, yeasts); assay type: cell-based; details: for MIC: Candida albicans, read-out: MIC Candida albicans ATCC MYA-2876
Procedure, shortened: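 Broth microdilution followed CLSI M27 in RPMI1640 buffered with 0.165 M MOPS, pH 7.0, with a final inoculum of 500–2500 CFU/mL. Eleven 2-fold compound concentrations were tested, and plates were incubated 24 h at 35 °C. MIC was the lowest concentration giving 50% growth inhibition, read visually with optional OD530 assistance.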

[2] = tested on: Aspergillus fumigatus ATCC MYA-4609; assay: Minimal inhibitory concentration (MIC) test on fungal growth (CLSI M38, Aspergillus); assay type: cell-based; details: for MIC: Aspergillus fumigatus, read-out: MIC Aspergillus fumigatus ATCC MYA-4609
Method: • RPMI1640 medium: Brand: Gibco, article number: 31800-014 • Sabouraud dextrose agar (SDA): Brand: Hope Bio, article number: HB0253-81 • Voriconazole: Brand: Adamas, article number: 22105A • Amphotericin B: Brand: AbCam, article number: ab141199
MIC test was conducted in accordance with the guidelines and requirements of CLSI M27 (for yeasts) and M38 (for Aspergillus).
Strain preparation: The strains were inoculated 1 day in advance by streaking on SDA plates with glycerol strains stored at −80° C. The strains were cultured at 35° C. and 40 to 60% humidity for 18 to 24 hours. Streak inoculation of Aspergillus fumigatus and Cryptococcus neoformans was required to be done 3 days and 2 days in advance, respectively.
Preparation of culture medium and compounds: The liquid culture medium RPMI was prepared with pure water, and 0.165 mol/L MOPS was added to adjust the pH to 7.0. The mixture was filtered with a 0.22 μm-membrane filter, sterilized, and stored at 4° C. (no more than 3 months). 0.85% physiological saline was sterilized at 121° C. for 30 min and then stored at room temperature (no more than 1 week). The compounds were dissolved in DMSO to 12.8 mg/mL and stored at −20° C.
For Aspergillus, 5 mL of physiological saline was added to cover the mycelium, and the spores were gently scraped off with a spreader. The spore suspension was then transferred to a sterile test tube. An appropriate amount of spore suspension was taken and counted under a microscope using a hemocytometer. Spore concentration was adjusted to approximately 0.4 to 5×10^4 spores/mL using RPMI1640 medium.
The compound was diluted to the highest 800 μg/mL (or 400 μg/mL) with DMSO, and a 10-step 2-fold gradient dilution was performed, resulting in 11 concentrations. 2 μL of the gradient-diluted compound was transferred to the corresponding wells of a 96-well plate, and then 198 μL of the inoculum was transferred to the test plate. The plate was incubated at 35° C. for 24 hours (Aspergillus fumigatus and Cryptococcus neoformans were incubated for 48 and 72 hours, respectively).
After the incubation, the growth of the fungi was visually observed. The lowest concentration of the compound that inhibited the growth of yeast by 50% (inhibited Aspergillus by 100%) was defined as the minimum inhibitory concentration (MIC, μg/mL). A magnifying glass or reading at OD530 nm could be used to assist in determining the MIC. Photos were taken of the test plates for record keeping.

[3] = lowest concentration inhibiting growth of yeast by 50%, 35° C., 24 hours, RPMI1640
[4] = lowest concentration inhibiting Aspergillus by 100%, 35° C., 48 hours, RPMI1640

SMILES	MIC [1, 3] [µg/mL]	MIC [2, 4] [µg/mL]	further results
OC1(COc2ccc(C34CC(C(F)(F)C(O)(Cn5cnnn5)c5ccc(F)cc5F)(C3)C4)cc2)CC(F)(F)C1 (stereo not shown) [Compound 149]	≤ 0.0039	8 (≈ 14.4 µM)	–
CC(C)(O)COc1ccc(C23CC(C(F)(F)[C@](O)(Cn4cnnn4)c4ccc(F)cc4F)(C2)C3)cc1 [Compound 36A]	0.0078 (≈ 0.0154 µM)	4 (≈ 7.9 µM)	–
CC(C12CC(c3ccc(OC[C@H](O)C(F)(F)F)cc3)(C1)C2)C(O)(Cn1cncn1)c1ccc(F)cc1F (stereo in doubt) [Compound 125]	≤ 0.0039	1 (≈ 1.91 µM)	–
CC(Oc1ccc(C23CC(C(F)(F)C(O)(Cn4cnnn4)c4ccc(F)cc4F)(C2)C3)cc1)C(O)C(F)(F)F (stereo not shown) [Compound 135]	0.016 (≈ 0.0285 µM)	8 (≈ 14.3 µM)	–
OC(Cn1cncn1)(c1ccc(F)cc1F)C(F)(F)C12CC(c3ccc(OC(F)F)cc3)(C1)C2 (stereo not shown) [Compound 81]	≤ 0.0039	1 (≈ 2.07 µM)	–
OC(Cn1cncn1)(CC12CC(c3ccc(OCC(F)(F)F)cc3)(C1)C2)c1ccc(F)cc1F (stereo not shown) [Compound 49]	0.0078 (≈ 0.0163 µM)	1 (≈ 2.09 µM)	–
OC1(COc2ccc(C34CC(C(F)(F)C(O)(Cn5cncn5)c5ccc(F)cc5F)(C3)C4)cc2)COC1 (stereo not shown) [Compound 151]	≤ 0.0039	2 (≈ 3.85 µM)	–
CC(C)(O)COc1ccc(C23CC(C(F)(F)[C@](O)(Cn4cncn4)c4ccc(F)cc4F)(C2)C3)cc1 [Compound 37A]	≤ 0.0039	1 (≈ 1.98 µM)	–
O[C@@](Cn1cnnn1)(c1ccc(F)cc1F)C(F)(F)C12CC(c3ccc(O[C@@H]4CCOC4)cc3)(C1)C2 [Compound 40A]	–	–	MIC Candida albicans ATCC MYA-2876 [1, 3]: ≤0.0039 µg/mL; MIC Aspergillus fumigatus ATCC MYA-4609 [2, 4]: 4 µg/mL (≈ 7.93 µM)
CNC(=O)COc1ccc(C23CC(C(F)(F)[C@](O)(Cn4cncn4)c4ccc(F)cc4F)(C2)C3)cc1 [Compound 35A]	–	–	MIC Candida albicans ATCC MYA-2876 [1, 3]: ≤0.0039 µg/mL; MIC Aspergillus fumigatus ATCC MYA-4609 [2, 4]: 1 µg/mL (≈ 1.98 µM)
COc1ccc(C23CC(C(F)(F)[C@](O)(Cn4cnnn4)c4ccc(F)cc4F)(C2)C3)cc1 [Compound 1A]	–	–	MIC Candida albicans ATCC MYA-2876 [1, 3]: 0.0078 µg/mL (≈ 0.0174 µM); MIC Aspergillus fumigatus ATCC MYA-4609 [2, 4]: 4 µg/mL (≈ 8.92 µM)
C[C@H](C12CC(c3ccc(OC[C@H](O)C(F)(F)F)cc3)(C1)C2)[C@](O)(Cn1cncn1)c1ccc(F)cc1F (relative stereo) [Compound 125A]	≤ 0.0039	0.5 (≈ 0.955 µM)	–
OC(Cn1cncn1)(c1ccc(F)cc1F)C(F)(F)C12CC(c3ccc(OCC(F)(F)F)cc3)(C1)C2 (stereo not shown) [Compound 2]	0.0078 (≈ 0.0151 µM)	1 (≈ 1.94 µM)	–
O[C@@H](COc1ccc(C23CC(C(F)(F)[C@](O)(Cn4cnnn4)c4ccc(F)cc4F)(C2)C3)cc1)C(F)(F)F [Compound 51B]	–	–	MIC Candida albicans ATCC MYA-2876 [1, 3]: 0.0078 µg/mL (≈ 0.0143 µM); MIC Aspergillus fumigatus ATCC MYA-4609 [2, 4]: 4 µg/mL (≈ 7.32 µM)
O[C@H](COc1ccc(C23CC(C(F)(F)[C@](O)(Cn4cncn4)c4ccc(F)cc4F)(C2)C3)cc1)C(F)(F)F (relative stereo) [Compound 132A]	≤ 0.0039	0.5 (≈ 0.917 µM)	–
O[C@@H](COc1ccc(C23CC(C(F)(F)[C@](O)(Cn4cnnn4)c4ccc(F)cc4F)(C2)C3)cn1)C(F)(F)F [Compound 97A]	–	–	MIC Candida albicans ATCC MYA-2876 [1, 3]: ≤0.0039 µg/mL; MIC Aspergillus fumigatus ATCC MYA-4609 [2, 4]: 4 µg/mL (≈ 7.31 µM)
OC(Cn1cncn1)(c1ccc(F)cc1F)C(F)(F)C12CC(c3ccc(OCC(F)F)cc3)(C1)C2 (stereo not shown) [Compound 23]	≤ 0.0039	1 (≈ 2.01 µM)	–
OC(Cn1cnnn1)(c1ccc(F)cc1F)C(F)(F)C12CC(c3ccc(O[C@@H]4CCOC4)cc3)(C1)C2 (stereo partly shown) [Compound 40]	≤ 0.0039	16 (≈ 31.7 µM)	–
OCC(F)(F)COc1ccc(C23CC(C(F)(F)C(O)(Cn4cnnn4)c4ccc(F)cc4F)(C2)C3)cc1 (stereo not shown) [Compound 50]	0.016 (≈ 0.0303 µM)	4 (≈ 7.57 µM)	–
O[C@@](Cn1cnnn1)(c1ccc(F)cc1F)C(F)(F)C12CC(c3ccc(COC(F)F)cc3)(C1)C2 (stereo in doubt) [Compound 159A]	≤ 0.0039	2 (≈ 4.01 µM)	–
N#Cc1ccc(C23CC(C(F)(F)C(O)(Cn4cncn4)c4ccc(F)cc4F)(C2)C3)cn1 (stereo not shown) [Compound 128]	–	–	MIC Candida albicans ATCC MYA-2876 [1, 3]: 0.0078 µg/mL (≈ 0.0176 µM); MIC Aspergillus fumigatus ATCC MYA-4609 [2, 4]: 4 µg/mL (≈ 9.02 µM)

SMILES	MIC [1, 3] [µg/mL]	MIC [2, 4] [µg/mL]	further results
O[C@H](COc1ccc(C23CC(C[C@](O)(Cn4cncn4)c4ccc(F)cc4F)(C2)C3)cc1)C(F)(F)F [Compound 90A]	≤ 0.0039	0.5 (≈ 0.981 µM)	–
O[C@@](Cn1cncn1)(c1ccc(F)cc1F)C(F)(F)C12CC(c3ccc(OCC(F)(F)F)cc3)(C1)C2 (stereo in doubt) [Compound 2A]	≤ 0.0039	1 (≈ 1.94 µM)	–
OC(Cn1cnnn1)(c1ccc(F)cc1F)C(F)(F)C12CC(c3ccc(OC[C@H]4CCCO4)cc3)(C1)C2 (stereo partly shown) [Compound 76]	–	–	MIC ([1]; 24 h): 0.016 µg/mL (≈ 0.0309 µM); MIC ([2]; 48 h): 8 µg/mL (≈ 15.4 µM)
O[C@@H](COc1ccc(C23CC(C(F)(F)C(O)(Cn4cnnn4)c4cc(F)ccc4F)(C2)C3)cc1)C(F)(F)F (stereo in doubt) [Compound 166]	0.06 (≈ 0.11 µM)	8 (≈ 14.6 µM)	–
O[C@H](COc1ccc(C23CC(C(F)(F)[C@](O)(Cn4cnnn4)c4ccc(F)cc4F)(C2)C3)cc1)C1CC1 (relative stereo) [Compound 144A]	≤ 0.0039	2 (≈ 3.86 µM)	–
CC(C)(O)COc1ccc(C23CC(C(F)(F)C(O)(Cn4cnnn4)c4ccc(F)cc4F)(C2)C3)cc1 (stereo not shown) [Compound 36]	≤ 0.0039	8 (≈ 15.8 µM)	–
O[C@H](COc1ccc(C23CC(C(F)(F)[C@@](O)(Cn4cncn4)c4ccc(F)cc4F)(C2)C3)cn1)C(F)(F)F [Compound 98B]	–	–	MIC Candida albicans ATCC MYA-2876 [1, 3]: ≤0.0039 µg/mL; MIC Aspergillus fumigatus ATCC MYA-4609 [2, 4]: 2 µg/mL (≈ 3.66 µM)
N#Cc1ccc(C23CC(C(F)(F)C(O)(Cn4cncn4)c4ccc(F)cc4F)(C2)C3)cc1 (stereo not shown) [Compound 27]	≤ 0.0039	1 (≈ 2.26 µM)	–
O[C@H](COc1ccc(C23CC(C(F)(F)[C@](O)(Cn4cnnn4)c4ccc(F)cc4F)(C2)C3)cc1)CC(F)(F)F (relative stereo) [Compound 142A]	≤ 0.0039	4 (≈ 7.14 µM)	–
OC(Cn1cnnn1)(c1ccc(F)cc1F)C(F)(F)C12CC(c3ccc(O[C@H]4CCOC4)cc3)(C1)C2 (stereo partly shown) [Compound 41]	0.0078 (≈ 0.0155 µM)	8 (≈ 15.9 µM)	–
OC(COc1ccc(C23CC(C(F)(F)C(O)(Cn4cncn4)c4ccc(F)cc4F)(C2)C3)cn1)C(F)(F)F (stereo not shown) [Compound 98]	–	–	MIC Candida albicans ATCC MYA-2876 [1, 3]: ≤0.0039 µg/mL; MIC Aspergillus fumigatus ATCC MYA-4609 [2, 4]: 2 µg/mL (≈ 3.66 µM)
O[C@H](COc1ccc(C23CC(C(F)(F)[C@@](O)(Cn4cnnn4)c4ccc(F)cc4F)(C2)C3)cn1)C(F)(F)F [Compound 97B]	–	–	MIC Candida albicans ATCC MYA-2876 [1, 3]: 0.0078 µg/mL (≈ 0.0142 µM); MIC Aspergillus fumigatus ATCC MYA-4609 [2, 4]: 8 µg/mL (≈ 14.6 µM)
O[C@@H](COc1ccc(C23CC(C(F)(F)[C@](O)(Cn4cnnn4)c4ccc(F)cc4F)(C2)C3)cc1)C1CC1 (relative stereo) [Compound 144B]	≤ 0.0039	4 (≈ 7.71 µM)	–
O[C@@](Cn1cnnn1)(c1ccc(F)cc1F)C(F)(F)C12CC(c3ccc(OCC(F)(F)F)nc3)(C1)C2 [Compound 46A]	–	–	MIC Candida albicans ATCC MYA-2876 [1, 3]: 0.0078 µg/mL (≈ 0.0151 µM); MIC Aspergillus fumigatus ATCC MYA-4609 [2, 4]: 2 µg/mL (≈ 3.87 µM)
O[C@@](Cn1cnnn1)(c1ccc(F)cc1F)C(F)(F)C12CC(c3ccc(OCC(F)F)cc3)(C1)C2 [Compound 22A]	0.0078 (≈ 0.0156 µM)	2 (≈ 4.01 µM)	–
COC(COc1ccc(C23CC(C(F)(F)C(O)(Cn4cnnn4)c4ccc(F)cc4F)(C2)C3)cc1)C(F)(F)F (stereo not shown) [Compound 136]	0.016 (≈ 0.0285 µM)	4 (≈ 7.14 µM)	–
O[C@H](COc1ccc(C23CC(C(F)(F)[C@](O)(Cn4cnnn4)c4ccc(F)cc4F)(C2)C3)cc1)C(F)(F)F [Compound 51A]	≤ 0.0039	1 (≈ 1.83 µM)	–
N#Cc1ccc(C23CC(C(F)(F)C(O)(Cn4cncn4)c4cc(F)ccc4F)(C2)C3)cc1 (stereo not shown) [Compound 29]	≤ 0.0039	2 (≈ 4.52 µM)	–
O[C@@](Cn1cncn1)(c1ccc(F)cc1F)C(F)(F)C12CC(C1)C2 [Compound 10A]	≤ 0.0039	1 (≈ 2.93 µM)	–
OC(Cn1cnnn1)(c1ccc(F)cc1F)C(F)(F)C12CC(c3ccc(OCC(F)F)cc3)(C1)C2 (stereo not shown) [Compound 22]	0.0078 (≈ 0.0156 µM)	4 (≈ 8.03 µM)	–
